{
  "source": "patent US5064833A",
  "about": "“Substituted quinazoline derivatives for use in gastrointestinal diseases” (Smithkline Beecham Intercredit B.V., priority 1989, dated 1991)",
  "note": "Structures can show the parent of a compound that is named as a salt.",
  "data": [
    {"test_system": "pentagastrin stimulated gastric acid secretion", "test": "Rat lumen perfused stomach (pentagastrin stimulated gastric acid secretion)", "format": "in vivo", "details": "iv, i.v. administration, 10 μmole/kg, read-out: Rat G.S. % inhibition @ 10 μmole/kg", "description": "Using a modification of the procedure described by Ghosh and Schild (Br. J. Pharmacology, 13, 54, 1958), the compounds of the following Examples were found on i.v. administration at a concentration of 10 μmole/kg to cause an inhibition of pentagastrin stimulated gastric acid secretion as indicated in the following Table.", "units": {"inhibition in vivo at 10 µmol/kg": "%"}, "values": [
      {"smiles": "COc1cccc2c(NCc3ccccc3)nc(N)nc12", "note": "[Example 2, 2-amino-8-methoxy-4-benzylaminoquinazoline]", "inhibition in vivo at 10 µmol/kg": 25},
      {"smiles": "Cc1cc(F)ccc1Nc1nc(N(C)c2ccccc2)c2ccccc2n1", "note": "[Example 32, 2-(2-methyl-4-fluorophenyl)amino]-4-(N-methylphenylamino)quinazoline hydrochloride]", "inhibition in vivo at 10 µmol/kg": 96},
      {"smiles": "Cc1cc(O)ccc1Nc1nc(N(C)c2ccccc2)c2ccccc2n1", "note": "[Example 30, 2-(4-hydroxy-2-methylphenyl)amino1-4-(N-methylphenylamino) quinazoline hydrochloride]", "inhibition in vivo at 10 µmol/kg": 23},
      {"smiles": "COc1cccc2c(NCc3ccccc3C)nc(N)nc12", "note": "[Example 4, 2-amino-8-methoxy-4-(2-methylbenzylamino)quinazoline]", "inhibition in vivo at 10 µmol/kg": 37},
      {"smiles": "CN(c1ccccc1)c1nc(Nc2ccccc2)nc2ccccc12", "note": "[Example 27, 2-phenylamino-4-(N-methylphenylamino)quinazoline hydrochloride]", "inhibition in vivo at 10 µmol/kg": 71},
      {"smiles": "COc1cccc2c(Nc3ccccc3C)nc(N(C)c3ccccc3)nc12", "note": "[Example 21, 2-(N-methylphenylamino)-4-(2-methylphenylamino)-8-methoxyquinazoline]", "inhibition in vivo at 10 µmol/kg": 37},
      {"smiles": "Cc1ccccc1CNc1nc(N(C)c2ccccc2)c2ccccc2n1", "note": "[Example 31, 2-(2-methvlbenzylamino)-4-(N-methylphenylamino)quinazoline hydrochloride]", "inhibition in vivo at 10 µmol/kg": 8},
      {"smiles": "COc1cccc2c(Nc3ccccc3C)nc(N3CCCC3)nc12", "note": "[Example 15, 2-pyrrolidino-8-methoxy-4-(2-methylphenylamino)quinazoline]", "inhibition in vivo at 10 µmol/kg": 31},
      {"smiles": "Cc1ccccc1CNc1nc(N)nc2ccccc12", "note": "[Example 25, 2-amino-4-(2-methylbenzylamino)quinazoline]", "inhibition in vivo at 10 µmol/kg": 24},
      {"smiles": "Cc1ccccc1Nc1nc(N2CCCC2)nc2ccccc12", "note": "[Example 8, 2-pyrrolidino-4-(2-methylphenylamino)quinazoline]", "inhibition in vivo at 10 µmol/kg": 17},
      {"smiles": "COc1cccc2c(Nc3ccccc3C)nc(N(C)C)nc12", "note": "[Example 5, 2-dimethylamino-8-methoxy-4-(2-methylphenylamino)quinazoline]", "inhibition in vivo at 10 µmol/kg": 37},
      {"smiles": "CN(c1ccccc1)c1nc(N(C)c2ccccc2)c2ccccc2n1", "note": "[Example 20, 2,4-Bis-(N-methylphenylamino)quinazoline hydrochloride]", "inhibition in vivo at 10 µmol/kg": 72},
      {"smiles": "COc1ccccc1Nc1nc(N)nc2c(OC)cccc12", "note": "[Example 18, 2-amino-8-methoxy-4-(2-methoxyphenylamino)quinazoline]", "inhibition in vivo at 10 µmol/kg": 12},
      {"smiles": "Cc1ccccc1Nc1nc(N(C)c2ccccc2)c2ccccc2n1", "note": "[Example 26, 2-(2-methylphenylamino)-4-(N-methylphenylamino)quinazoline hydrochloride]", "inhibition in vivo at 10 µmol/kg": 79},
      {"smiles": "Cc1ccccc1Nc1nc(N(C)c2ccccc2)nc2ccccc12", "note": "[Example 22, 2-(N-methylphenylamino)-4-(2-methylphenylamino)quinazoline hydrochloride]", "inhibition in vivo at 10 µmol/kg": 27},
      {"smiles": "Cc1ccccc1Nc1nc(N)nc2c(C)cccc12", "note": "[Example 6, 2-amino-8-methyl-4-(2-methylphenylamino)quinazoline]", "inhibition in vivo at 10 µmol/kg": 48},
      {"smiles": "Cc1ccccc1Nc1nc(NCCc2ccccc2)nc2ccccc12", "note": "[Example 16, 2-phenylethylamino-4-(2-methylphenylamino)quinazoline]", "inhibition in vivo at 10 µmol/kg": 31},
      {"smiles": "COc1ccc(Nc2nc(N)nc3c(OC)cccc23)c(C)c1", "note": "[Example 3, 2-amino-8-methoxy-4-(2-methyl-4-methoxyphenylamino)quinazoline]", "inhibition in vivo at 10 µmol/kg": 16},
      {"smiles": "COc1cccc2c(N(C)c3ccccc3)nc(Nc3ccccc3C)nc12", "note": "[Example 24, 4-(N-methylphenylamino)-2-(2-methylphenylamino)-8-methoxyquinazoline]", "inhibition in vivo at 10 µmol/kg": 97},
      {"smiles": "CCc1ccc2nc(N)nc(Nc3ccccc3C)c2c1", "note": "[Example 11, 2-amino-4-(2-methylphenylamino)-6-ethylquinazoline]", "inhibition in vivo at 10 µmol/kg": 28},
      {"smiles": "Cc1ccccc1Nc1nc(N)nc2ccccc12", "note": "[Example 7, 2-amino-4-(2-methylphenylamino)quinazoline]", "inhibition in vivo at 10 µmol/kg": 20},
      {"smiles": "CNc1nc(Nc2ccccc2C)c2cccc(OC)c2n1", "note": "[Example 13, 2-methylamino-8-methoxy-4-(2-methylphenylamino)quinazoline]", "inhibition in vivo at 10 µmol/kg": 20},
      {"smiles": "COc1cccc2c(N(C)c3ccccc3)nc(N)nc12", "note": "[Example 29, 2-amino-4-(N-methylphenylamino)-8-methoxyquinazoline hydrochloride]", "inhibition in vivo at 10 µmol/kg": 13},
      {"smiles": "COc1cccc2c(Nc3ccccc3C)nc(N)nc12", "note": "[Example 1, 2-amino-8-methoxy-4-(2-methylphenylamino)quinazoline]", "inhibition in vivo at 10 µmol/kg": 60}
    ]},
    {"test_system": "isolated rat osteoclasts", "test": "Bone resorption by isolated rat osteoclasts on cortical bone slices", "format": "cell-based", "details": "Osteoclast, 10 μM, 18 hours, control = 100 ± 27, Mean ± SEM, n = 12", "procedure": "(§1) Bone resorption was measured by the actions of isolated rat osteoclasts on cortical bone slices (Zaidi et al Quarterly Journal of Experimental Physiology 1988 73:471-485). Newborn Wistar rats were killed by decapitation and their femora and tibiae removed. Osteoclasts were mechanically disaggregated by curetting the bones into medium followed by agitation with a pipette. Osteoclasts were separated from other cells by sedimentation onto bone slices (15 minutes, 37°) after which the slices were removed and gently washed. The bone slices were then incubated in the presence of test compounds (37°, 10% humidified CO2, 18 hours) and fixed with glutaraldehyde. The degree of bone resorption was then assessed by the area of erosions produced by the osteoclasts using scanning electron microscopy. Data were meaned from measurements of 6 bone slices in each of two independent experiments.\n(§2) Test compounds were dissolved in ethanol which was also added to control incubations (1%) in the absence of compound.", "units": {"activity at 10 µM": "%"}, "values": [
      {"smiles": "Cc1cc(F)ccc1Nc1nc(N(C)c2ccccc2)c2cc(O)ccc2n1", "note": "[Example 56, 4-(N-methylphenylamino)-2-[(2-methyl-4-fluorophenyl)amino]-6-hydroxyquinazoline hydrochloride]", "activity at 10 µM": "7 ± 4"}
    ]},
    {"test_system": "isolated rat osteoclasts", "test": "Bone resorption by isolated rat osteoclasts on cortical bone slices", "format": "cell-based", "details": "Osteoclast, 100 μM, 18 hours, control = 100 ± 27, Mean ± SEM, n = 12", "procedure": "as §1, §2", "units": {"activity at 100 µM": "%"}, "values": [
      {"smiles": "Cc1cc(F)ccc1Nc1nc(N(C)c2ccccc2)c2cc(O)ccc2n1", "note": "[Example 56, 4-(N-methylphenylamino)-2-[(2-methyl-4-fluorophenyl)amino]-6-hydroxyquinazoline hydrochloride]", "activity at 100 µM": 7}
    ]}
  ]
}
